This experiment relates to T1, horseradish peroxidase (HRP).
T1 construct: gene PRXC1A; native enzyme, free in solution
The experiment in a line: guaiacol oxidation assay, spectrophotometric, Michaelis-Menten fit. The class given is biochemical, Armoracia rusticana. The following applies: native free enzyme; co-substrate hydrogen peroxide. From the text: guaiacol oxidation assay, spectrophotometric, Michaelis-Menten fit on horseradish peroxidase (HRP)

Among the data in paper PMC7900168, “Nanocomposite-based dual enzyme system for broad-spectrum scavenging of reactive oxygen species” (Scientific Reports, 2021) are Km values, retold here.

Structures are written as SMILES.

For orientation: Km means the concentration of substrate that gives half-maximal velocity. Regarding `COc1ccccc1O` [guaiacol], the Km turned out to be 1560 ± 80 µM.
